Measured values as given in patent publication US10500222B2, “Compositions and methods relating to treatment of infection” (Wayne State University, priority 2015, dated 2019).
Values after ≈ are worked out from the molar mass of the structure shown. “Also recorded” adds a separate entry of the source.

Columns and labels:
[1] = system: P. aeruginosa KEI 1025 infected cornea; experiment: Histopathology of eyes infected with KEI 1025; type: in vivo, C57BL/6 (B6) mice; settings: vs PBS
Procedure: (§1) The left eyes of B6 mice (n=5/group/time) were injected with 5 μl of 2 μg/μl glycyrrhizin (GLY) (Sigma-Aldrich, St. Louis, Mo.) or PBS (control) subconjunctivally, one day before infection. Similar treatment was done using carbenoxolone (CBX) (Sigma-Aldrich, St. Louis, Mo.). All mice were injected intraperitoneally (IP) at 1 and 3 days p.i. with 100 μl of GLY (2 μg/μl) or CBX (1 μg/μl). PBS served as control for all these experiments. In a separate similar experiment mice were treated one day before infection with GLY subconjunctivally and injected intraperitoneally (i.p.) with GLY plus recombinant (r) HMGB1 (1 μg/100 μl) or GLY plus PBS. IP injections were similarly given at 1 and 3 days p.i. In an additional experiment, KEI 1025 infected B6 mice were treated with 5 μl of 2 μg/μl GLY subconjunctivally at 6 hours p.i. and injected intraperitoneally at 1 and 3 days p.i. with 100 μl of GLY (2 μg/μl).
Whole eyes infected with KEI 1025 (n=3/group/time) were enucleated from GLY or PBS treated B6 mice at 3 and 5 days p.i. Eyes were immersed in PBS, rinsed, and fixed in 1% osmium tetroxide, 2.5% glutaraldehyde, and 0.2 M Sorenson's phosphate buffer (pH 7.4) (1:1:1) at 4° C. for 3 h. Eyes were rinsed with 0.1 M phosphate buffer, dehydrated in graded ethanols and propylene oxide, and then infiltrated and embedded in Epon-araldite. Thick sections (1.5 μm) were cut, stained with Richardson's stain, observed, and photographed (Leica DM4000B, Leica Microsystems, Inc.).
The left eyes of B6 mice (n=5/group/time) were infected as above with Pseudomonas KEI 1025 strain. These infected B6 mice were treated by topical administration of GLY. Pseudomonas aeruginosa infected left cornea received 5 μL of GLY (20 μg/μL) topically beginning 6 (or 8) hours post infection and continued 2× daily for days 1-4 post infection.

[2] = system: P. aeruginosa KEI 1025; experiment: Bacterial growth and Minimum Inhibitory Concentration (MIC), strain KEI 1025; type: cell-based, Pseudomonas aeruginosa; settings: for absorbance values of bacterial cultures: vs growth control
[3] = system: neutrophils in the cornea, P. aeruginosa ATCC strain 19660; experiment: Myeloperoxidase (MPO) assay, strain 19660 infection; type: in vivo, C57BL/6 (B6) mice; settings: vs PBS
Procedure: as §1
(§2) This assay was used to quantitate neutrophils in the cornea of GLY and PBS treated mice (n=5/group/time) infected with KEI 1025 or ATCC strain 19660. Individual corneas were removed at 3 and 5 days p.i. and homogenized in 1.0 ml of 50 mM phosphate buffer (pH 6.0) containing 0.5% HTAB. […] The change in absorbency was monitored at 460 nm for 5 min at 30 sec intervals. The slope of the line was determined for each sample and used to calculate units of MPO/cornea. […]

[4] = system: mRNA levels in P. aeruginosa ATCC strain 19660 infected cornea; experiment: Real time RT-PCR of cornea, strain 19660 infection; type: in vivo, C57BL/6 (B6) mice; settings: vs PBS
Procedure: as §1
(§3) KEI 1025 or ATCC strain 19660 infected GLY or PBS treated mice were sacrificed at 5 days p.i. and the normal, contralateral (uninfected) and infected cornea was harvested. For each cornea, total RNA was isolated (RNA STAT-60™; Tel-Test, Friendswood, Tex.) according to the manufacturer's instructions. Upon spectrophotometric quantification at 260 nm, 1 μg of each RNA sample was reverse transcribed using Moloney-murine leukemia virus (M-MLV) reverse transcriptase (Invitrogen, Carlsbad, Calif.) to produce a cDNA template for the PCR reaction. cDNA products were diluted 1:25 with diethylpyrocarbonate (DEPC)-treated water. A 2 μl aliquot of diluted cDNA was used for the real-time RT-PCR reaction with Real-Time SYBR® Green/Fluorescein PCR Master Mix (Bio-Rad) and primer concentrations of 10 μM (total 10 μl reaction volume). After a pre-programmed hot start cycle (3 min at 95° C.), the parameters used for PCR amplification were: 15 sec at 95° C. and 60 sec at 60° C. with the cycles repeated 45 times. Optimal conditions for PCR amplification of cDNA were established using routine methods. mRNA levels of HMGB1, RAGE, IL-1β, TLR2, TLR4, CXCL2, TNF-α, NLR family pyrin domain containing 3 (NLRP3), NLR family CARD domain containing 4 (NLRC4), IL-12, TGF-β, IL-10, single Ig IL-1-related receptor (SIGIRR) and interleukin 1 receptor-like 1 (ST2) were tested by real-time RT-PCR (CFX Connect™ Real-Time PCR Detection System; Bio-Rad, Richmond, Calif.). The fold differences in gene expression were calculated after normalization to β-actin and expressed as the relative mRNA concentration+SEM.

[5] = system: neutrophils in the cornea, P. aeruginosa KEI 1025; experiment: Myeloperoxidase (MPO) assay, KEI 1025 infection; type: in vivo, C57BL/6 (B6) mice; settings: pretreatment subconj. + IP, vs PBS
Procedure: as §1, §2

[6] = system: mRNA levels in P. aeruginosa KEI 1025 infected cornea; experiment: Real time RT-PCR of cornea, KEI 1025 infection; type: in vivo, C57BL/6 (B6) mice
Procedure: as §1, §3

[7] = KEI 1025, pretreatment subconj. + IP, infected cornea 5 days p.i., vs PBS

With `CC1(C)[C@@H](O[C@H]2O[C@H](C(=O)O)[C@@H](O)[C@H](O)[C@H]2O[C@@H]2O[C@H](C(=O)O)[C@@H](O)[C@H](O)[C@H]2O)CC[C@]2(C)[C@H]3C(=O)C=C4[C@@H]5C[C@@](C)(C(=O)O)CC[C@]5(C)CC[C@@]4(C)[C@]3(C)CC[C@@H]12` [GLY, glycyrrhizin] the “histopathology: cellular infiltrate, corneal destruction” value ([1]; pretreatment subconj. + IP, 3 days p.i.) was “markedly reduced cellular infiltrate; also recorded: reduced corneal destruction and infiltrate”, the “histopathology: cellular infiltrate, damage to the cornea” value ([1]; pretreatment subconj. + IP, 5 days p.i.) was “markedly reduced cellular infiltrate; also recorded: reduced damage to the cornea and a decreased cellular infiltrate” and the “histopathology: damage to the cornea, cellular infiltrate” value ([1]; topical GLY from 6 hours p.i. and days 1-4 twice each day, 5 days p.i.) was “reduced damage to the cornea and a decreased cellular infiltrate”. The MIC50 ([2]; Pseudomonas aeruginosa, KEI1025, strain KEI 1025, 50% decrease in absorbance at 540 nm, 37° C., 18 h) was 20 mg/mL (≈ 24.3 mM), the MIC90 ([2]; Pseudomonas aeruginosa, KEI1025, strain KEI 1025, 90% decrease in absorbance at 540 nm, 37° C., 18 h) was 40 mg/mL (≈ 48.6 mM) and the “Minimum Inhibitory Concentration 50 (MIC50)” value ([2]; non-cytotoxic strains) was 20 milligrams/milliliter. For the same compound, the “absorbance values of bacterial cultures” value ([2]; strain KEI 1025, grown with 20 mg/ml GLY) was “significantly reduced”, the “absorbance values of bacterial cultures” value ([2]; strain KEI 1025, grown with 40 mg/ml GLY) was “significantly reduced” and the “neutrophils in the cornea (MPO assay)” value ([3]; 3 days p.i.) was “significant decrease in neutrophils”. For the same compound, the “neutrophils in the cornea (MPO assay)” value ([3]; 5 days p.i.) was “significant decrease in neutrophils”, the “mRNA levels of CXCL2” value ([4]; strain 19660, 5 days p.i.) was “slightly, but not significantly decreased” and the “Relative mRNA levels for HMGB1” value ([4]; strain 19660, infected cornea 5 days p.i.) was “no different”. The “CXCL2 mRNA” value ([4]; strain 19660 experiment, normal cornea) was “No differences”, the “Relative mRNA levels for HMGB1” value ([4]; strain 19660 experiment, uninfected, normal cornea) was “no different” and the “neutrophils in cornea (MPO assay)” value ([5]; 3 days p.i.) was “decreased neutrophils”. For the same compound, the “neutrophils in cornea (MPO assay)” value ([5]; 5 days p.i.) was “decreased neutrophils”, the “CXCL2 mRNA levels” value [6, 7] was “reduced” and the “HMGB1 mRNA levels” value [6, 7] was “significantly reduced; also recorded: significantly decreased”. For the same compound, the “IL-1β mRNA levels” value [6, 7] was “significantly reduced”, the “IL-10 mRNA levels” value [6, 7] was “reduced” and the “IL-12 mRNA levels” value [6, 7] was “only GLY reduced”. For the same compound, the “NLRC4 mRNA levels” value [6, 7] was “only GLY reduced”, the “NLRP3 mRNA levels” value [6, 7] was “reduced” and the “RAGE mRNA levels” value [6, 7] was “reduced RAGE mRNA levels (FIG. 2B) when compared with PBS but not significantly”. For the same compound, the “ST2 mRNA levels” value [6, 7] was “reduced”, the “TGF-β mRNA levels” value [6, 7] was “reduced” and the “TLR2 mRNA levels” value [6, 7] was “significantly reduced”. The “TLR4 mRNA” value [6, 7] was “reduced”, the “TNF-α mRNA levels” value [6, 7] was “reduced by both GLY and CBX, but only GLY (p<0.01) was significant” and the “mRNA levels of the other molecules tested” value ([6]; normal (uninfected) corneas, among PBS, CBX, GLY groups) was “no differences”. For the same compound, the “RAGE mRNA levels” value ([6]; normal (uninfected) corneas, vs PBS) was “significantly reduced”.
